Source: ChEMBL document CHEMBL2424528, “Novel tetrahydropyran analogs as dipeptidyl peptidase IV inhibitors: Profile of clinical candidate (2R,3S,5R)-2- (2,5-difluorophenyl)-5-(4,6-dihydropyrrolo [3,4-c]pyrazol-5-(1H)-yl)tetrahydro-2H-pyran-3-amine (23) [corrected]” (Bioorg Med Chem Lett, 2013)
The source made the active and inactive calls. The calls are words filed in the database; no cut-off is given here.

Tests used:
[1] = biological target: Dipeptidyl peptidase 8 (Homo sapiens, UniProt Q6V1X1); assay: Inhibition of human DPP8
[2] = biological target: T1, Prolyl endopeptidase FAP (Homo sapiens, UniProt Q12884); assay: Inhibition of human FAP
T1 sequence (Q12884 whole entry): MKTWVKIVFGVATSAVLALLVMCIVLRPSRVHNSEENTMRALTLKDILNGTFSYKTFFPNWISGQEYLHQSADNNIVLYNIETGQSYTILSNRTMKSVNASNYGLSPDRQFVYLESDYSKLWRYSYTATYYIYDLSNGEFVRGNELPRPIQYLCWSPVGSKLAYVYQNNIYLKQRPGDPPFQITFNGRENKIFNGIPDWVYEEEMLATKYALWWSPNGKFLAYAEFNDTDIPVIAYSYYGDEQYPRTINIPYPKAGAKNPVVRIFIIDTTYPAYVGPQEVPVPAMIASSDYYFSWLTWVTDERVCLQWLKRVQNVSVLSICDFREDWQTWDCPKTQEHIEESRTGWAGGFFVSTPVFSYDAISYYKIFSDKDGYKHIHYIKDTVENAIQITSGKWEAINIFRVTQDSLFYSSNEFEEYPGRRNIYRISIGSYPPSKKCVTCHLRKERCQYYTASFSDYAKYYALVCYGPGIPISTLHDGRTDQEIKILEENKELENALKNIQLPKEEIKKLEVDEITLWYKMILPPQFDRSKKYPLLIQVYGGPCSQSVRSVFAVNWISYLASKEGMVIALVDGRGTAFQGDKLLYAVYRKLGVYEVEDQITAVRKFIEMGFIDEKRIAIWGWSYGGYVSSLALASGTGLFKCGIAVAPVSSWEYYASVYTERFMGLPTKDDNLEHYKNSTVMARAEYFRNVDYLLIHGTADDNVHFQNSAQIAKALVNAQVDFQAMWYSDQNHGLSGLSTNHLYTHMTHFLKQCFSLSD

[3] = biological target: Dipeptidyl peptidase 2 (Homo sapiens, UniProt Q9UHL4); assay: Inhibition of QPP (unknown origin)
[4] = system: Mus musculus; assay: Antidiabetic activity in orally dosed lean mouse assessed as reduction in blood glucose excursion administered 1 hr prior to dextrose challenge by oral glucose tolerance test; format: functional, organism-based
[5] = Dissociation constant, pKa of the compound; format: physicochemical
[6] = system: Canis familiaris; assay: Cardiotoxicity in dog model assessed as QTc prolongation up to 30 mg/kg; format: toxicity, organism-based, Canis lupus familiaris; parameters: dose 30 mg/kg; conditions: in vivo
[7] = biological target: Voltage-gated inwardly rectifying potassium channel KCNH2 (Homo sapiens, UniProt Q12809); assay: Inhibition of human ERG channel
[8] = system: Mus musculus; assay: Antidiabetic activity in lean mouse assessed as reduction in blood glucose AUC at 3 mg/kg, po administered 1 hr prior to dextrose challenge by oral glucose tolerance test; format: functional; parameters: scale not given: the % may be the effect or the level left
[9] = system: Mus musculus; assay: Antidiabetic activity in lean mouse assessed as reduction in blood glucose AUC at 0.1 mg/kg, po administered 1 hr prior to dextrose challenge by oral glucose tolerance test; format: functional; parameters: scale not given: the % may be the effect or the level left
[10] = system: Mus musculus; assay: Antidiabetic activity in DPP-4i-deficient lean mouse assessed as inhibition of blood glucose excursion at 3 mg/kg administered 1 hr prior to dextrose challenge by oral glucose tolerance test relative to control; format: functional, organism-based; parameters: dose 3 mg/kg
[11] = system: Mus musculus; assay: Antidiabetic activity in wild type lean mouse assessed as inhibition of blood glucose excursion at 3 mg/kg administered 1 hr prior to dextrose challenge by oral glucose tolerance test; format: functional
[12] = system: Mus musculus; assay: Induction in plasma GLP-1 level in lean mouse at 1 mg/kg; format: functional, organism-based; parameters: dose 1 mg/kg
[13] = organism: Mus musculus; assay: Induction in plasma GLP-1 level in lean mouse; format: functional, organism-based
[14] = Plasma concentration in lean mouse at 0.3 mg/kg administered 10 mins prior to dextrose challenge; format: ADME, organism-based; parameters: dose 0.3 mg/kg
[15] = system: Mus musculus; assay: In vivo inhibition of DPP4 in lean mouse model at 0.3 mg/kg administered 10 mins prior to dextrose challenge; format: functional; parameters: scale not given: the % may be the effect or the level left
[16] = system: Mus musculus; assay: In vivo inhibition of DPP4 in lean mouse model administered 10 mins prior to dextrose challenge; format: functional, organism-based
[17] = system: Rhesus monkey; assay: Dose normalized AUC in rhesus monkey at 2 mg/kg, po; format: ADME, organism-based, Macaca mulatta; parameters: dose 2 mg/kg, route oral; conditions: in vivo
[18] = system: Canis familiaris; assay: Dose normalized AUC in beagle dog at 2 mg/kg, po; format: ADME, organism-based, Canis lupus familiaris; parameters: dose 2 mg/kg, route oral; conditions: in vivo
[19] = system: Rattus norvegicus; assay: Dose normalized AUC in rat at 2 mg/kg, po; format: ADME, organism-based; parameters: dose 2 mg/kg, route oral; conditions: in vivo
[20] = Oral bioavailability in rhesus monkey at 2 mg/kg; format: ADME, organism-based, Macaca mulatta; conditions: in vivo
[21] = Oral bioavailability in beagle dog at 2 mg/kg; format: ADME, organism-based, Canis lupus familiaris; conditions: in vivo
[22] = Oral bioavailability in rat at 2 mg/kg; format: ADME, organism-based; conditions: in vivo
[23] = Tmax in rhesus monkey at 1 mg/kg, iv and 2 mg/kg, po; format: ADME, organism-based, Macaca mulatta; conditions: in vivo
[24] = Tmax in beagle dog at 1 mg/kg, iv and 2 mg/kg, po; format: ADME, organism-based, Canis lupus familiaris; conditions: in vivo
[25] = Tmax in rat at 1 mg/kg, iv and 2 mg/kg, po; format: ADME, organism-based; conditions: in vivo
[26] = Cmax in rhesus monkey at 2 mg/kg, po; format: ADME, organism-based, Macaca mulatta; parameters: dose 2 mg/kg, route oral; conditions: in vivo
[27] = Cmax in beagle dog at 2 mg/kg, po; format: ADME, organism-based, Canis lupus familiaris; parameters: dose 2 mg/kg, route oral; conditions: in vivo
[28] = Cmax in rat at 2 mg/kg, po; format: ADME, organism-based; parameters: dose 2 mg/kg, route oral; conditions: in vivo
[29] = Terminal half life in rhesus monkey at 1 mg/kg, iv and 2 mg/kg, po; format: ADME, organism-based, Macaca mulatta; conditions: in vivo, read-out: beta t1/2 (converted)
[30] = Terminal half life in beagle dog at 1 mg/kg, iv and 2 mg/kg, po; format: ADME, organism-based, Canis lupus familiaris; conditions: in vivo, read-out: beta t1/2 (converted)
[31] = Terminal half life in rat at 1 mg/kg, iv and 2 mg/kg, po; format: ADME, organism-based; conditions: in vivo, read-out: beta t1/2 (converted)
[32] = Volume of distribution at steady state in beagle dog at 1 mg/kg, iv and 2 mg/kg, po; format: ADME, organism-based, Canis lupus familiaris; conditions: in vivo, read-out: Vdss
[33] = Volume of distribution at steady state in rhesus monkey at 1 mg/kg, iv and 2 mg/kg, po; format: ADME, organism-based, Macaca mulatta; conditions: in vivo, read-out: Vdss
[34] = Volume of distribution at steady state in rat at 1 mg/kg, iv and 2 mg/kg, po; format: ADME, organism-based; conditions: in vivo, read-out: Vdss
[35] = Plasma clearance in rhesus monkey at 1 mg/kg, iv and 2 mg/kg, po; format: ADME, organism-based, Macaca mulatta
[36] = Plasma clearance in beagle dog at 1 mg/kg, iv and 2 mg/kg, po; format: ADME, organism-based, Canis lupus familiaris
[37] = Plasma clearance in rat at 1 mg/kg, iv and 2 mg/kg, po; format: ADME, organism-based
[38] = Inhibition of cytochrome P450 (unknown origin); format: ADME; conditions: human
[39] = biological target: Voltage-dependent L-type calcium channel subunit alpha-1C (Homo sapiens, UniProt Q13936); assay: Inhibition of Cav1.2 channel (unknown origin)
[40] = system: Canis familiaris; assay: Cardiotoxicity in cardiovascular dog model assessed as QTc prolongation at 3 mg/kg; format: toxicity, organism-based, Canis lupus familiaris, Heart; parameters: dose 3 mg/kg; conditions: in vivo

Voltage-gated inwardly rectifying potassium channel KCNH2, sequence (Q12809 whole entry): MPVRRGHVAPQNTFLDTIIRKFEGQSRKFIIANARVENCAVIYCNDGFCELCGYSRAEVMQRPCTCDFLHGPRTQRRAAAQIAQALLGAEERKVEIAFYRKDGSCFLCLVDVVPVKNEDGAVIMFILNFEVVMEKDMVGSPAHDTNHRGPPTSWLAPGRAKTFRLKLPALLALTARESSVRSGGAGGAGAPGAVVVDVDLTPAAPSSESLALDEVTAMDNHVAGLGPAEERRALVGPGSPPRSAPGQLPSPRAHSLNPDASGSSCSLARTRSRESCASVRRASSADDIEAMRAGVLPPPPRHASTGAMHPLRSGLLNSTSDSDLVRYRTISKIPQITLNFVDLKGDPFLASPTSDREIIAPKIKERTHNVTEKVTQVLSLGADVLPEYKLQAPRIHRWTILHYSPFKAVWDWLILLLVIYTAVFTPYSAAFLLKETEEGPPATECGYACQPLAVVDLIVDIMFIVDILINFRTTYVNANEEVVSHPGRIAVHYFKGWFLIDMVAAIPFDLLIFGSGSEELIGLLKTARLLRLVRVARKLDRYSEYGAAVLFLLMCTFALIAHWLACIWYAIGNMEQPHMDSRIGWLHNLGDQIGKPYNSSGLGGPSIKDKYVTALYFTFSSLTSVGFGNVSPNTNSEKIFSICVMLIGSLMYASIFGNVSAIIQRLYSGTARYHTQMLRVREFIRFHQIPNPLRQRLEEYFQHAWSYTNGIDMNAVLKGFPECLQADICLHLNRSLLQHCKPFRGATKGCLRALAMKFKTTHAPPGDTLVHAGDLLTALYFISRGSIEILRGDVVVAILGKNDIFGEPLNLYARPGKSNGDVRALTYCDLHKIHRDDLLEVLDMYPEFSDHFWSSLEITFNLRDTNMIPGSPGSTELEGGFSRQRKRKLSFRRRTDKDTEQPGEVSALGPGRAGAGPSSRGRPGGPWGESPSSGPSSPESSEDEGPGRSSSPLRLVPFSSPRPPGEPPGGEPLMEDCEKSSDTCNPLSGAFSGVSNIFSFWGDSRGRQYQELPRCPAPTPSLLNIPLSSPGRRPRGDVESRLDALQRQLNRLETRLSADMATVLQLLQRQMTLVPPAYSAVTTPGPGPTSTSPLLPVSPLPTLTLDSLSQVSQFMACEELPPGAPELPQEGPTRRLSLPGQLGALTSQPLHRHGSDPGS
Dipeptidyl peptidase 8, sequence (Q6V1X1 whole entry): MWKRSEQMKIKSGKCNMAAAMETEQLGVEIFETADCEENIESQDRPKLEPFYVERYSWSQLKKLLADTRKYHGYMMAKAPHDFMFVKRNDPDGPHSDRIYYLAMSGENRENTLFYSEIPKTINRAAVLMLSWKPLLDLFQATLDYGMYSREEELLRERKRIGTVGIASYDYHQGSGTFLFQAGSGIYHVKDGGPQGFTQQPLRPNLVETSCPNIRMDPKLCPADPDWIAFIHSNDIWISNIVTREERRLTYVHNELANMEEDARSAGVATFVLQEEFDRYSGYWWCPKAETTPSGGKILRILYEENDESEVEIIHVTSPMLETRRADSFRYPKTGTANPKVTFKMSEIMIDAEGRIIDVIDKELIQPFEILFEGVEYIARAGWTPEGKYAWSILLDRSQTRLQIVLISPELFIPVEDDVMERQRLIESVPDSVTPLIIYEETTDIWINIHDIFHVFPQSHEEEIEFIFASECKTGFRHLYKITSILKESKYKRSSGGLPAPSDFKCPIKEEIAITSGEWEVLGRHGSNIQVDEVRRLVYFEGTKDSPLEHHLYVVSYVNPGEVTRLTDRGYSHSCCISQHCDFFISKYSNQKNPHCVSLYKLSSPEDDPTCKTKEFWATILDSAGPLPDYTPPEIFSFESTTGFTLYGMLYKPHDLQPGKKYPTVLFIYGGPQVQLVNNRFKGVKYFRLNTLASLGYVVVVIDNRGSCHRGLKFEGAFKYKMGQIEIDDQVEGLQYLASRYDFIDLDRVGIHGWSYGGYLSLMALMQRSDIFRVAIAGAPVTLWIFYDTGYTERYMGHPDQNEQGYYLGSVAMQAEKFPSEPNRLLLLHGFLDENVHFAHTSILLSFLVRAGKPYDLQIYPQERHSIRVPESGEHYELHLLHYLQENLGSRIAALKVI
Voltage-dependent L-type calcium channel subunit alpha-1C, sequence (Q13936 whole entry): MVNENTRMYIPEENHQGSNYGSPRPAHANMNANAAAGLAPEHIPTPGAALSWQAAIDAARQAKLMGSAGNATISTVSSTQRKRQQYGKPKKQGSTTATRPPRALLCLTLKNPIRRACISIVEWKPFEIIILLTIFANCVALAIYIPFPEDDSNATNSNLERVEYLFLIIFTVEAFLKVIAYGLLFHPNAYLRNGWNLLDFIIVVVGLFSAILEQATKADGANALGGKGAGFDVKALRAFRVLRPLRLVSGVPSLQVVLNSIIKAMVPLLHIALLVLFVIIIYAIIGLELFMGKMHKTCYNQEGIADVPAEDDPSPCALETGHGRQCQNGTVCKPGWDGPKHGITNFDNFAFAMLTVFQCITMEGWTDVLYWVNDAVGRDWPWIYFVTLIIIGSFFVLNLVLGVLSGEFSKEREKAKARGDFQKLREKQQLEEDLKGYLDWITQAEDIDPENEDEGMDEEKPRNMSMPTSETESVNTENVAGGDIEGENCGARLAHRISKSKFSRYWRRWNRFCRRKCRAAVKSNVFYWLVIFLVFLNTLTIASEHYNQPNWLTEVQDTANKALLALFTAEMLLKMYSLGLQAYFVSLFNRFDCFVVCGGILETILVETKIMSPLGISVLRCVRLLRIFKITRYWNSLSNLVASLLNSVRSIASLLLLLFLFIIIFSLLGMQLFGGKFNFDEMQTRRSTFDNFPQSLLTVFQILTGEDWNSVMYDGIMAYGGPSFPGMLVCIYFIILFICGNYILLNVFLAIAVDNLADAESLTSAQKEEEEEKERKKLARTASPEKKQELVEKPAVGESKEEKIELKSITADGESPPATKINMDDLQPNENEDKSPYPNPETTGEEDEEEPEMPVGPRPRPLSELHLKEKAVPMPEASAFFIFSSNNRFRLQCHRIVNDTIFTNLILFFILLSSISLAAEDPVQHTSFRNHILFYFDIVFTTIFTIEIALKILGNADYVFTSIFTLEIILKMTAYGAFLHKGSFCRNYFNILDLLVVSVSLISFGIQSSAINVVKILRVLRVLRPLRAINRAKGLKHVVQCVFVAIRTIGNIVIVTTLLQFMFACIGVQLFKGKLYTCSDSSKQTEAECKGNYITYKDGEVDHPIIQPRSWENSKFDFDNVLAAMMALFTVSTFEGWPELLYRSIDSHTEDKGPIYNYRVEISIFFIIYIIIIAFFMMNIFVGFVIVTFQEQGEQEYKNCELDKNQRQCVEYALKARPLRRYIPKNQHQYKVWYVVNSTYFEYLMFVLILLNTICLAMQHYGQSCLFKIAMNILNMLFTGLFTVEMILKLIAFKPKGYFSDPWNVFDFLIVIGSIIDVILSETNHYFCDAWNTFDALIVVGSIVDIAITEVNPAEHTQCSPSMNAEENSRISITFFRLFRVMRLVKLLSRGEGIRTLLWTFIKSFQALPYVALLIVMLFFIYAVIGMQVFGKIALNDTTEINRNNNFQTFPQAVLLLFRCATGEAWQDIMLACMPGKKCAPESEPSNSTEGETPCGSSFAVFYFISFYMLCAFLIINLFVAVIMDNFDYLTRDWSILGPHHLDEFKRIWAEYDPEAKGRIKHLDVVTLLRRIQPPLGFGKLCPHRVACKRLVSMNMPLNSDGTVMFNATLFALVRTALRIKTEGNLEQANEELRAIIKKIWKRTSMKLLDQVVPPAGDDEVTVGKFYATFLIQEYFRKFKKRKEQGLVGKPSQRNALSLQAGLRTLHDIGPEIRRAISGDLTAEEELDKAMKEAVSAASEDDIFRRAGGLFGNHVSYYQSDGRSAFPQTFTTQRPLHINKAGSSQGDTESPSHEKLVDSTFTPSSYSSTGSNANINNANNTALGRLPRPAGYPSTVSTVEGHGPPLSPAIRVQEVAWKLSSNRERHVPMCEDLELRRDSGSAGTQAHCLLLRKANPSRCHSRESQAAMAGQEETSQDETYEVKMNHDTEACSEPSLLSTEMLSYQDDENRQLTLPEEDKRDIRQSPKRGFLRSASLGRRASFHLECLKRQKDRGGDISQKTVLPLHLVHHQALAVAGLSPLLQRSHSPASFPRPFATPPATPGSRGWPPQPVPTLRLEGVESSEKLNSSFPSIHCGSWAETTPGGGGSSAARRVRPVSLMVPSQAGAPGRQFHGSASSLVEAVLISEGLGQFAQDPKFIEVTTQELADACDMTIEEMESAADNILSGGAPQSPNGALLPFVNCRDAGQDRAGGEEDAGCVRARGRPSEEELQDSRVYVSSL

Structure (SMILES): CC1(C)c2cnc(C3CC3)nc2CN1[C@H]1CO[C@H](c2cc(F)ccc2F)[C@@H](N)C1
- IC50 [1]: > 100 µM
- IC50 [2]: > 100 µM

Structure (SMILES): Cc1nc2c(o1)CN([C@H]1CO[C@H](c3cc(F)ccc3F)[C@@H](N)C1)C2
- IC50 [1]: > 100 µM
- IC50 [2]: > 100 µM
- IC50 [3]: > 100 µM

Structure (SMILES): N[C@H]1C[C@@H](N2Cc3ccccc3O2)CO[C@@H]1c1cc(F)ccc1F
- IC50 [2]: > 100 µM

Structure (SMILES): N[C@@H](CC(=O)N1CCn2c(nnc2C(F)(F)F)C1)Cc1cc(F)c(F)cc1F
- Activity [4]: Active

Structure (SMILES): N[C@H]1C[C@@H](N2CCn3c(nnc3C(F)(F)F)C2)CO[C@@H]1c1cc(F)ccc1F
- IC50 [1]: > 100 µM
- IC50 [2]: > 100 µM
- IC50 [3]: > 100 µM

Structure (SMILES): N[C@H]1C[C@@H](N2Cc3nc(C(F)(F)F)[nH]c3C2)CO[C@@H]1c1cc(F)ccc1F
- IC50 [2]: > 100 µM
- IC50 [3]: > 100 µM

Structure (SMILES): N[C@H]1C[C@@H](N2Cc3cn[nH]c3C2)CO[C@@H]1c1cc(F)c(Cl)cc1F
- IC50 [1]: > 100 µM
- IC50 [2]: > 100 µM

Structure (SMILES): N[C@H]1C[C@@H](N2Cc3cnc(C(F)(F)F)nc3C2)CO[C@@H]1c1cc(F)c(F)cc1F
- pKa [5]: 7.3
- Activity [6]: Non-toxic

Structure (SMILES): N[C@H]1C[C@@H](N2Cc3cn[nH]c3C2)CO[C@@H]1c1ccc(F)cc1F
- IC50 [1]: > 100 µM
- IC50 [2]: > 100 µM

Structure (SMILES): N[C@H]1C[C@@H](N2Cc3cn[nH]c3C2)CO[C@@H]1c1cc(F)c(F)cc1F
- IC50 [1]: > 100 µM
- IC50 [2]: > 6.4 µM

Structure (SMILES): N[C@H]1C[C@@H](N2Cc3cnc(C4CC4)nc3C2)CO[C@@H]1c1cc(F)c(F)cc1F
- Activity [6]: Non-toxic
- IC50 [7]: > 30 µM

Structure (SMILES): CC1(C)c2nc(C3CC3)ncc2CN1[C@H]1CO[C@H](c2cc(F)ccc2F)[C@@H](N)C1
- IC50 [1]: > 100 µM

Structure (SMILES): N[C@H]1C[C@@H](N2Cc3cn[nH]c3C2)CO[C@@H]1c1cc(F)ccc1F
- Activity [8]: 47%
- Activity [9]: 27%
- inhibition [10]: inactive
- inhibition in vivo at 3 mg/kg [11]: 53%
- Activity [12]: Active
- Activity [13]: Dose-dependent effect
- concentration at 10 min [14]: 260 nM
- Activity [15]: >80%
- Activity [16]: Dose-dependent effect
- Activity [4]: Dose-dependent effect
- AUC/dose [17]: 7.33 µM·h/mg/kg
- AUC/dose [18]: 16.1 µM·h/mg/kg
- AUC/dose [19]: 3.72 µM·h/mg/kg
- bioavailability [20]: 72%
- bioavailability [21]: 83%
- bioavailability [22]: 70%
- Tmax [23]: 1.1 h
- Tmax [24]: 3.5 h
- Tmax [25]: 0.5 h
- Cmax [26]: 1480 nM
- Cmax [27]: 1920 nM
- Cmax [28]: 800 nM
- half-life [29]: 9.7 h
- half-life [30]: 13 h
- half-life [31]: 6.3 h
- Vd [32]: 3 L/kg
- Vd [33]: 4.2 L/kg
- Vd [34]: 4.9 L/kg
- clearance [35]: 5.2 mL/min/kg
- clearance [36]: 2.7 mL/min/kg
- clearance [37]: 9.7 mL/min/kg
- inhibition (INH) [38]: Not Active
- inhibition (INH) [39]: Not Active
- inhibition (INH) ([7]; human): Not Active

Structure (SMILES): N[C@H]1C[C@@H](N2Cc3ccccc3C2=O)CO[C@@H]1c1cc(F)ccc1F
- IC50 [1]: > 100 µM
- IC50 [2]: > 100 µM
- IC50 [3]: > 100 µM

Structure (SMILES): N[C@H]1C[C@@H](N2Cc3cn[nH]c3C2)CO[C@@H]1c1ccccc1Cl
- IC50 [1]: > 100 µM
- IC50 [2]: > 100 µM
- IC50 [3]: > 100 µM

Structure (SMILES): N[C@H]1C[C@@H](N2Cc3cn[nH]c3C2)CO[C@@H]1c1cc(F)ccc1Cl
- IC50 [2]: > 100 µM
- IC50 [3]: > 100 µM

Structure (SMILES): N[C@H]1C[C@@H](N2Cc3cnc(C(F)(F)F)nc3C2)CC[C@@H]1c1cc(F)c(F)cc1F
- pKa [5]: 8.6
- Activity [40]: > 5%
- IC50 [7]: 4.8 µM
